Data as given in PMC11583597, “Brain uptake pharmacokinetics of albiglutide, dulaglutide, tirzepatide, and DA5-CH in the search for new treatments of Alzheimer’s and Parkinson’s diseases” (Tissue Barriers, 2023).

Columns and labels:
[1] = reported; cited from earlier work
[2] = Long-term (6 h) measurement of brain uptake; type: in vivo, male CD-1 mice; details: mouse iv 125I-IRA, 6 h circulation; corrected for vascular space and degradation; estimated
Method: Substances that are enzymatically stable in blood and have slow clearance from the circulation can slowly enter the brain using the extracellular pathways.[63],[64] […] Albumin enters the brain by extracellular pathways,[70] and so we used albumin in two ways: we used ^99mTc-Alb circulating for 10 min to measure vascular space and ^99mTc-Alb circulating for 6 h to measure brain uptake by extracellular pathways. This is similar to the time-differential methodology developed by Poduslo and Curran to measure a substance’s vascular space and its uptake rate.[71] Following anesthetization, the jugular vein and right carotid artery were exposed. Mice were given an iv injection of 0.1% BSA-LR containing 1 × 10^6 cpm of ^125I-IRA or 5 × 10^5 cpm of ^99mTc-Alb, which circulated for 6 h. Mice receiving only the ^125I-IRA were given an injection of 5 × 10^5 cpm of ^99mTc-Alb 10 min prior to the end of the 6 h circulation time to act as a vascular marker. A separate set of mice received an iv injection of both 1 × 10^6 cpm of ^125I-IRA and 5 × 10^5 cpm of ^99mTc-Alb that circulated for 10 min. Following the 10 min or 6 h circulation time points, blood and brain were collected as described above. Thus, we had B/S ratios for ^99mTc-Alb measuring vascular space (10 min circulation time) and B/S ratios for ^99mTc-Alb measuring vascular space plus uptake by the extracellular pathways (6 h circulation time) which could be compared to the B/S ratios for the ^125I-IRAs after 10 min and 6 h of circulation.
Immediately after counting the radioactivity, the blood and brains from the 10 min and 6 h time points were processed as described in Section 2.5 for in vivo stability. For further comparison, data from the 1 h time point were taken from the original pharmacokinetic uptake study. The ^125I-IRA brain % acid precipitation (%AP) was divided by the ^125I-IRA serum %AP at each time point to calculate the %AP B/S ratio. This value was multiplied by the B/S ratio for each ^125I-IRA to correct for degradation over the 10 min, 1 h, or 6 h time periods. […]

[3] = cited from earlier work; for Brain influx within 1 h of iv injection (detection): mouse iv, radiolabeled IRA, earlier study
Text: The unidirectional blood-to-brain influx rate (Ki) calculated from Figure 2c for all four IRAs tested is graphed with previously calculated Ki’s for other IRAs[50] in Figure 3 by rank.

[4] = IRAs of the earlier study; cited from earlier work
Method: The rank order of IRAs showing significant brain uptake 1 h after iv injection with respect to AUCs is similar, but not identical to the rank order of their Ki’s (see Figures 5b and 3b). Less similar is the rank order of IRAs for uptake into brain parenchyma defined as the percent reaching the brain that was in its parenchyma vs. its capillaries. The rank order of parenchymal uptake was specifically DA4-JC (89.7%) = albiglutide (BAF) (89.4%) > DA3-CH (86%) > exenatide (84.2%) > Peptide 17 (73.2%) > lixisenatide (66.8%) > dulaglutide (BAF) (61.8%) > DA5-CH (57.6%) > Peptide 21 (43.6%) > liraglu ...

[5] = rat, 1 hour after iv, LC-MS/MS, mean, cited from earlier work
Method: This may reflect in part the sensitivity of our method using small amounts of radiolabeled peptides given the results of a recent study on semaglutide. That study used a novel liquid chromatography-tandem mass spectroscopy (LC-MS/MS) method to measure brain levels of semaglutide in adult male Sprague-Dawley rats injected iv 1 hour earlier with about […] of the unlabeled drug per animal. Detectable ...

**Q.** Which results are given for `CCCCCCCCCCCCCCCC(=O)N[C@@H](CCC(=O)NCCCC[C@H](NC(=O)[C@H](C)NC(=O)[C@H](C)NC(=O)[C@H](CCC(N)=O)NC(=O)CNC(=O)[C@H](CCC(=O)O)NC(=O)[C@H](CC(C)C)NC(=O)[C@H](Cc1ccc(O)cc1)NC(=O)[C@H](CO)NC(=O)[C@H](CO)NC(=O)[C@@H](NC(=O)[C@H](CC(=O)O)NC(=O)[C@H](CO)NC(=O)[C@@H](NC(=O)[C@H](Cc1ccccc1)NC(=O)[C@@H](NC(=O)CNC(=O)[C@H](CCC(=O)O)NC(=O)[C@H](C)NC(=O)[C@@H](N)Cc1cnc[nH]1)[C@@H](C)O)[C@@H](C)O)C(C)C)C(=O)N[C@@H](CCC(=O)O)C(=O)N[C@@H](Cc1ccccc1)C(=O)N[C@H](C(=O)N[C@@H](C)C(=O)N[C@@H](Cc1c[nH]c2ccccc12)C(=O)N[C@@H](CC(C)C)C(=O)N[C@H](C(=O)N[C@@H](CCCNC(=N)N)C(=O)NCC(=O)N[C@@H](CCCNC(=N)N)C(=O)NCC(=O)O)C(C)C)[C@@H](C)CC)C(=O)O` [Liraglutide]?
**A.** half-lives in human serum [1]: 11 to 13 h; Amount present in brain at 6 h (AP corrected delta %Inj/g) [2]: 0.03 %Inj/g; Brain influx within 1 h of iv injection (detection) [3]: did not detect brain influx; Percent reaching the brain that was in parenchyma vs. capillaries [4]: 28.7%

**Q.** For `CC[C@H](C)[C@H](NC(=O)[C@H](Cc1ccccc1)NC(=O)[C@H](CCC(=O)O)NC(=O)[C@H](CCCCNC(=O)COCCOCCNC(=O)COCCOCCNC(=O)CC[C@H](NC(=O)CCCCCCCCCCCCCCCCC(=O)O)C(=O)O)NC(=O)[C@H](C)NC(=O)[C@H](C)NC(=O)[C@H](CCC(N)=O)NC(=O)CNC(=O)[C@H](CCC(=O)O)NC(=O)[C@H](CC(C)C)NC(=O)[C@H](Cc1ccc(O)cc1)NC(=O)[C@H](CO)NC(=O)[C@H](CO)NC(=O)[C@@H](NC(=O)[C@H](CC(=O)O)NC(=O)[C@H](CO)NC(=O)[C@@H](NC(=O)[C@H](Cc1ccccc1)NC(=O)[C@@H](NC(=O)CNC(=O)[C@H](CCC(=O)O)NC(=O)C(C)(C)NC(=O)[C@@H](N)Cc1cnc[nH]1)[C@@H](C)O)[C@@H](C)O)C(C)C)C(=O)N[C@@H](C)C(=O)N[C@@H](Cc1c[nH]c2ccccc12)C(=O)N[C@@H](CC(C)C)C(=O)N[C@H](C(=O)N[C@@H](CCCNC(=N)N)C(=O)NCC(=O)N[C@@H](CCCNC(=N)N)C(=O)NCC(=O)O)C(C)C` [Semaglutide], which “half-lives in human serum” value [1] is on record?
**A.** Its value is ~ 160 h.

**Q.** And the “Amount present in brain at 6 h (AP corrected delta %Inj/g)” value [2]?
**A.** Its value is 0.022 %Inj/g.

**Q.** And the “Brain influx within 1 h of iv injection (detection)” value [3]?
**A.** Its value is “did not detect brain influx”.

**Q.** And the “semaglutide level in the cerebrum” value ([5]; cerebrum = cerebral cortex + striatum + amygdala + olfactory bulb)?
**A.** Its value is 7.7 ng/g.

**Q.** What about the “semaglutide level in the cerebellum” value [5] of the same compound?
**A.** Its value is 12.6 ng/g.

**Q.** What about the “semaglutide level in the hypothalamus” value [5] of the same compound?
**A.** Its value is 27 ng/g.

**Q.** What about the “semaglutide level in the brain as a whole” value ([5]; no vascular wash-out) of the same compound?
**A.** Its value is 12.0 ng/g.

**Q.** For “lixisenatide: FDA-approved IRA tested in the earlier study (ref 50)”, which “Blood to Brain Unidirectional Influx Rate (Ki)” value ([3]; mouse, in vivo, iv) is on record?
**A.** Its value is 0.3271 µL/g/min.

**Q.** What about the “Percent reaching the brain that was in parenchyma vs. capillaries” value [4] of the same compound?
**A.** Its value is 66.8%.
